Reference: publication PMC11173721, “Discovery of a New Class of Lipophilic Pyrimidine-Biphenyl Herbicides Using an Integrated Experimental-Computational Approach” (Molecules, 2024)

Biological target: T1, acetohydroxyacid synthase (AHAS) (Arabidopsis thaliana, UniProt P17597)
T1 construct: gene ALS; wild-type
T1 sequence (P17597 56-670): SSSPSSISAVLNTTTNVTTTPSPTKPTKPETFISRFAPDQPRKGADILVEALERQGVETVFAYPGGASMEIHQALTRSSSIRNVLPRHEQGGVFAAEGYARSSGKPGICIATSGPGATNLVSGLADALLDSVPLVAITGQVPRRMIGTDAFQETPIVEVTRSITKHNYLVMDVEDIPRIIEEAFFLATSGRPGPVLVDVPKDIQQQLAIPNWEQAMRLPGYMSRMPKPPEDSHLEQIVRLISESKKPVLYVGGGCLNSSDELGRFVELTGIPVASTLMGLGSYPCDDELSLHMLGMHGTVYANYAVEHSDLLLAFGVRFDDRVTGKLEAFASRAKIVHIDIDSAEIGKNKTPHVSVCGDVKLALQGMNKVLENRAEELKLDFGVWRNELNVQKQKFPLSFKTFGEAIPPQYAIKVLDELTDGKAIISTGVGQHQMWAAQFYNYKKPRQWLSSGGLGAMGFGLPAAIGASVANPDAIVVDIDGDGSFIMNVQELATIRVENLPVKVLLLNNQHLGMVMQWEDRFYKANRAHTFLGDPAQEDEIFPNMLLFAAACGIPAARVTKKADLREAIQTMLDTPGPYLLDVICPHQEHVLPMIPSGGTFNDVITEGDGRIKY
Assay: purified AtAHAS colorimetric activity assay ([…] nm)
Assay type: biochemical

Row | IC50 | SMILES
1 | 343 µM | COc1cc(OC)nc(Oc2ccccc2CNc2ccc(-c3ccccc3)cc2)n1 [IIIa]
2 | 189 µM | COc1cc(OC)nc(Oc2ccccc2CNc2cccc(-c3ccccc3)c2)n1 [IIa]
3 | 157 µM | COc1cc(OC)nc(Oc2ccccc2CNc2ccccc2-c2ccccc2)n1 [Ia]
4 | 593 µM | COc1cc(OC)nc(Oc2ccccc2CNc2ccccc2)n1 [PBA]
